COc1c(O)cc2c(c1O)[C@@H]1O[C@H](CO)[C@@H](O)[C@H](O)[C@H]1OC2=O
solubility (mole fraction)
Conditions	298.15 K	303.15 K	308.15 K	313.15 K	318.15 K
in DMSO	0.0168	0.0182	0.0198	0.0212	0.0229
in water	7.5e-05	9.88e-05	0.000123	0.000151	0.000185
